The subject of data set [1] is GUS activity in ropgap4-1 seedlings. In words: GUS specific activity in ropgap4-1 seedlings. It is filed as in vivo, Arabidopsis thaliana.
The test system of another data set is WT seedlings. The conditions noted are these: for Viable Seedlings 48 h after Treatment: 30 μM DPI in 3% DMSO, mean ± SE.
Another data set has as its system ropgap4-1 seedlings. Conditions: for Viable Seedlings 48 h after Treatment: ropgap4-1, 30 μM DPI in 3% DMSO, mean ± SE.
The subject of another data set is CA-rop2 seedlings. Conditions: for Viable Seedlings 48 h after Treatment: CA-rop2, 30 μM DPI in 3% DMSO, mean ± SE.
In the next data set the test system is DN-rop2 seedlings. The conditions noted are these: for Viable Seedlings 48 h after Treatment: DN-rop2, 30 μM DPI in 3% DMSO, mean ± SE.
The test system of a further data set is H2O2. Conditions: seedlings treated with caffeine and DPI for 24 h.
The test system of a further data set is ADH. In words: ADH specific activity in cell extracts of treated seedlings.

Read-outs that look alike come from different tables or passages of the source.

The values that follow come from US20040006783A1, “Compositions and methods for modulating Rop GTPase activity in plants” (THE REGENTS THE UNIVERSITY OF CALIFORINIA, priority 2002, published 2004).

Text for CA-rop2 seedlings: (§1) For oxygen deprivation, plates were transferred to an airtight chamber designed to allow entry and exit of 99.998% argon under 0.4 μmols/s^1m^2 per μÅ of light.
Text for DN-rop2 seedlings: as §1
Experimental for H2O2: Caffeine (5 mM) was incorporated into the medium of plates to which seedlings were transferred. […] Control seedlings were treated with 3% (v/v) DMSO or transferred to plates not containing caffeine.
H2O2 levels were measured using a modification of the Terashima (1998) method (Terashima et al., Physiol. Plant. 103:295-303 (1998)). Tissue (0.5 g) was homogenized under liquid nitrogen, hydrated in 3 ml of 5% (w/v) metaphosphoric acid and centrifuged at 1,500×g at 4° C. for 20 min. The pH of the supernatant was adjusted to pH 7 with 1M Tricine, 6M NaOH. H2O2 levels were measured in a 500-μl reaction containing 200 mM MOPS-KOH (pH 7.8), 50 mM NADH in 10 mM potassium phosphate (pH 7.8). Absorbance at 340 nm was measured, 0.5 U of Streptococcusfaecalis NADH peroxidase (Sigma) was added, the sample was incubated for 1 h and absorbance at 340 nm was re-measured. H2O2 levels were determined from the decrease in absorbance in 60 min using a standard curve generated from similarly processed H2O2 standards.
Text for WT seedlings: as §1

With `c1ccc2c(c1)[I+]c1ccccc1-2` [DPI, diphenylene iodonium chloride], the “effect on rise of GUS activity in response to low oxygen and caffeine” value in data set [1] (DPI) was “blocked”. Moreover, the “Viable Seedlings 48 h after Treatment” value was found to be 100 Percentage in the data set on WT seedlings (0 h oxygen deprivation); 80 ± 5 Percentage in the data set with WT seedlings (6 h oxygen deprivation); 0 Percentage in the data set with WT seedlings (12 h oxygen deprivation); 0 Percentage with WT seedlings (24 h oxygen deprivation); 100 Percentage in the data set with ropgap4-1 seedlings (0 h oxygen deprivation); 100 Percentage in the data set with ropgap4-1 seedlings (6 h oxygen deprivation). The “Viable Seedlings 48 h after Treatment” value with ropgap4-1 seedlings (12 h oxygen deprivation) came to 50 ± 5 Percentage; with ropgap4-1 seedlings (24 h oxygen deprivation), 0 Percentage; in the data set on CA-rop2 seedlings (0 h oxygen deprivation), 100 Percentage; in the data set with CA-rop2 seedlings (6 h oxygen deprivation) it was 100 Percentage; in the data set with CA-rop2 seedlings (12 h oxygen deprivation), 100 Percentage; in the data set on CA-rop2 seedlings (24 h oxygen deprivation), 0 Percentage. For the same molecule, the “Viable Seedlings 48 h after Treatment” value was 90 ± 3 Percentage with DN-rop2 seedlings (0 h oxygen deprivation), 70 ± 4 Percentage in the data set with DN-rop2 seedlings (6 h oxygen deprivation), 0 Percentage with DN-rop2 seedlings (12 h oxygen deprivation) and 0 Percentage in the data set on DN-rop2 seedlings (24 h oxygen deprivation). For the same molecule, the “duration of stress that WT seedlings survived” value with WT seedlings (oxygen deprivation with DPI (over 36 h without DPI)) is “less than 12 h”. Also, the “effect on survival of O2 deprivation” value in the data set on ropgap4-1 seedlings (ropgap4-1 seedlings, DPI treatment) was “increased survival of O2 deprivation”. The “effect on survival of oxygen deprivation” value is “improved” in the data set with CA-rop2 seedlings (CA-rop2 seedlings, in the presence of DPI) and “impaired” in the data set with DN-rop2 seedlings (DN-rop2 seedlings, in the presence of DPI). In the data set on H2O2, the “effect on caffeine-stimulated increase in H2O2” value is on record as “effectively blocked”. Further, the “effect on ADH activity” value in the data set on ADH (all four genotypes, control and low oxygen conditions, 30 μM DPI) is “reduced ADH activity”. Further, the “effect on ADH induction” value in the data set with ADH (ropgap4-1 seedlings, oxygen deprivation, DPI treatment) was “reduced ADH induction”. Besides, the “effect on caffeine-stimulated increase in ADH specific activity” value in the data set with ADH (seedlings treated with caffeine and DPI for 24 h) is recorded as “effectively blocked”.
On to `Cn1c(=O)c2c(ncn2C)n(C)c1=O` [Caffeine], for which the “effect on GUS activity” value in data set [1] (caffeine) is reported as “rose”. Further, the “caffeine promoted increase in ADH specific activity” value is reported as “limited” in the data set on ADH (CA-rop2 seedlings) and “dramatic” in the data set with ADH (ropgap4-1 seedlings). Also, in the data set on ADH (all four genotypes, non-stress conditions, caffeine 5 mM, 24 h), the “induction of ADH specific activity” value is “significantly higher levels than the maximal level observed in response to low oxygen”.
